From ChEMBL document CHEMBL1201862, “PubChem BioAssay data set” (2004)
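Exposure lasted 48 hours, with cells grown in 96-well plates and compounds tested at five concentrations. Here, GI50 denotes the concentration required for 50% inhibition of growth.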 Calls of active or inactive are those of the source. Cut-off read from the data, not from the text of the source: active = GI50 up to about 1.1 µM and inactive = higher.

Experiments:
Test in all cases: growth of human tumour cells (NCI), 48 h
[1] = test system: CAKI-1
[2] = test system: CCRF-CEM
[3] = test system: HCT-116
[4] = test system: HCT-15
[5] = test system: HOP-62
[6] = test system: LOX IMVI
[7] = test system: LXFL 529
[8] = test system: M14
[9] = test system: NCI-H226
[10] = test system: OVCAR-3
[11] = test system: OVCAR-4
[12] = test system: SK-MEL-5
[13] = test system: U-251
[14] = test system: UACC-257
[15] = test system: UACC-62
[16] = test system: UO-31
[17] = test system: DU-145
[18] = test system: MDA-MB-435
[19] = test system: PC-3
[20] = test system: MDA-MB-231

| Compound | GI50 [1] | GI50 [2] | GI50 [3] | GI50 [4] [µM] | GI50 [5] | GI50 [6] | GI50 [7] | GI50 [8] | GI50 [9] | GI50 [10] | GI50 [11] | GI50 [12] | GI50 [13] | GI50 [14] | GI50 [15] | GI50 [16] | GI50 [17] | GI50 [18] | GI50 [19] | GI50 [20] |
| --- | --- | --- | --- | --- | --- | --- | --- | --- | --- | --- | --- | --- | --- | --- | --- | --- | --- | --- | --- | --- |
| COC1=C(C(=O)OC(C)(C)C)[C@]2(C)C(C(=O)OC(C)(C)C)C(OC)=C(C(=O)OC(C)(C)C)[C@]2(C)C1C(=O)OC(C)(C)C (stereo partly specified) | 71.3 µM (inactive) | 73.8 µM (inactive) | 96.4 µM (inactive) | 53 | > 100 µM (inactive) | > 100 µM (inactive) | > 100 µM (inactive) | 46.9 µM (inactive) | > 100 µM (inactive) | 29.3 µM (inactive) | 97.7 µM (inactive) | 35.1 µM (inactive) | > 100 µM (inactive) | 28.2 µM (inactive) | > 100 µM (inactive) | 85.3 µM (inactive) |  |  |  |  |
| O=C(NCCCCCCCCNC(=O)c1cccc2ccccc12)c1cccc2ccccc12 | 18.2 µM (inactive) | > 100 µM (inactive) | 24.4 µM (inactive) | 97.5 | 4.07 µM (inactive) | > 77.8 µM (inactive) | > 56.5 µM (inactive) | 34.4 µM (inactive) | 8.43 µM (inactive) | 16.7 µM (inactive) | 4.01 µM (inactive) | > 92.9 µM (inactive) | 12.5 µM (inactive) | > 93.1 µM (inactive) | 21.2 µM (inactive) | 6.3 µM (inactive) | > 100 µM (inactive) | > 100 µM (inactive) | > 100 µM (inactive) |  |
| CN(C)c1ccc(/C=C(/NC(=O)c2ccccc2)c2nc3cc(Cl)ccc3[nH]2)cc1 | 61.7 µM (inactive) | 22.4 µM (inactive) | 37.8 µM (inactive) | 16.6 | > 100 µM (inactive) | 18.3 µM (inactive) | 30.1 µM (inactive) | 32.7 µM (inactive) | 30.8 µM (inactive) | 0.0123 µM (active) | 18.6 µM (inactive) | 21.6 µM (inactive) | 35.5 µM (inactive) | 20.3 µM (inactive) | 36 µM (inactive) | 28.8 µM (inactive) |  |  |  |  |
| CC(=O)OC(C)(C)/C=C/C(=O)[C@](C)(O)[C@H]1[C@H](O)C[C@@]2(C)[C@@H]3CC=C4[C@@H](C=C(O)C(=O)C4(C)C)[C@]3(C)C(=O)C[C@]12C [CUCURBITACIN E] | 0.0216 µM (active) | 0.0298 µM (active) | 0.034 µM (active) | 0.0278 | 0.0408 µM (active) | 0.0101 µM (active) | 0.0339 µM (active) | 0.0375 µM (active) | 0.0327 µM (active) | 0.0459 µM (active) | 0.0305 µM (active) | 0.0406 µM (active) | 0.0203 µM (active) | 0.0385 µM (active) | 0.065 µM (active) | 0.0235 µM (active) | 0.0262 µM (active) | 0.604 µM (active) | 0.259 µM (active) | 0.0537 µM (active) |
| CCC1(O)C(=O)OCc2c1cc1n(c2=O)Cc2cc3ccc(CO)cc3nc2-1 (stereo unspecified) | 2.97 µM (inactive) | 0.186 µM (active) | 4.85 µM (inactive) | 15.6 | 0.566 µM (active) | 1.83 µM (inactive) | 26.7 µM (inactive) | 3.59 µM (inactive) | 1.59 µM (inactive) | 4.55 µM (inactive) | 23.8 µM (inactive) | 3.08 µM (inactive) | 0.705 µM (active) | 12.2 µM (inactive) | 0.757 µM (active) | 3.81 µM (inactive) |  |  |  |  |
| C=C(CN(C)C)C(=O)c1ccccc1OC | 9.82 µM (inactive) | 2.51 µM (inactive) | 15.6 µM (inactive) | 15.9 | > 52.8 µM (inactive) | 13.8 µM (inactive) | 3.68 µM (inactive) | 12 µM (inactive) | 37.2 µM (inactive) | 16 µM (inactive) | 20.6 µM (inactive) | 17.1 µM (inactive) | 24.5 µM (inactive) | 15.6 µM (inactive) | 21 µM (inactive) | 16.4 µM (inactive) | > 45 µM (inactive) | 19.5 µM (inactive) | 17.5 µM (inactive) | 14.4 µM (inactive) |
| C=C[C@]1(C)CC(O)C2C(=C)C(=O)OC2[C@H]1C(=C)C=O (stereo partly specified) | 4.35 µM (inactive) | 0.925 µM (active) | 1.64 µM (inactive) | 2.06 | 15.5 µM (inactive) | 1.01 µM (active) | 1.64 µM (inactive) | 2.08 µM (inactive) | 6.59 µM (inactive) | 2.67 µM (inactive) | 7.93 µM (inactive) | 2.33 µM (inactive) | 9.04 µM (inactive) | 1.57 µM (inactive) | 1.79 µM (inactive) | 6.37 µM (inactive) | 12.1 µM (inactive) |  | 2.87 µM (inactive) | 3.1 µM (inactive) |
